The source of these data is patent publication US7335673B2, “2,3-Diphenylpropionic acid derivatives or their salts, medicines or cell adhesion inhibitors containing the same, and their usage” (Kaken Pharmaceutical Co., Ltd., priority 2001, dated 2008).

Assay [1] in a line: VLA-4/VCAM-1 cell adhesion inhibition test. The class given is cell-based. The conditions noted are these: Homo sapiens; adhesion of BCECF-labeled HL-60 cells to VCAM-1-expressing CHO cells; read-out: 50% Inhibition Concentration.
Protocol: VCAM-1-expressing CHO cells were placed in a 96-well cuture plate in an amount of 7×10^3 cells/well, and were cultured in Ham's F-12 medium containing 10 vol % fetal calf serum (FCS) for 3 days until a confluent state was satisfied. HL-60 cells were re-flotated in Hanks' solution containing 0.4 wt % bovine serum albumin (BSA), and fluorescence-labeled by adding 5 μM of 2′,7′-bis(carboxyethyl)-5(6)-carboxy fluorescein pentaacetoxymethyl ester (BCECF-AM). […]
Thus-pretreated HL-60 cells were then stratified in an amount of 2×10^5 cells/well in each well containing the cultured VCAM-1-expressing CHO cells, and allowed to adhere at 37° C. for 5 minutes. […] The cells were washed, destroyed by adding PBS containing 1 vol % NP-40, and fluorescence intensity of the obtained supernatant was measured using a fluorescence measurement system (Millipore, Model cyto Fluor 2300).
Blank experiment was based on fluorescence intensity of PBS containing 1 vol % NP-40. Standard experiment was carried out using the fluorescence-labeled HL-60 suspensions having a concentration of 2×10^5, 10^5, 2×10^4 and 10^4 cells/mL, respectively, where the suspensions were added to PBS containing 1 vol % NP-40, the cells were destroyed, and the fluorescence intensities of the obtained supernatant were measured. […]
Another assay deals with LPAM-1/VCAM-1 adhesion. The assay is described as follows: LPAM-1/VCAM-1 adhesion inhibition test.

Consider `CC(C)CNc1cccc(C(Cc2ccc(NC(=O)c3c(Cl)cccc3Cl)cc2)C(=O)O)c1` (stereo not drawn) [Example 27], for which the IC50 in assay [1] was 6 µM.
For `COc1ccc(C(Cc2ccc(-c3c(OC)cccc3OC)cc2)C(=O)O)cc1N(CC(C)C)C(=O)C(C)(C)C` (stereo not drawn) [Example 106], in assay [1], the IC50 is 4.1 µM. The “inhibition activity in LPAM-1/VCAM-1 adhesion inhibition test” value in the assay with LPAM-1/VCAM-1 adhesion is on record as “showed the inhibition activity”.
